Measured values taken from patent US20090246292A1, “ANTIMICROBIAL FORMULATIONS COMPRISING A QUINONE AND A COPPER SALT” (priority 2006, published 2009).
Like-named read-outs stand apart in the source and are kept apart here.

Legend:
[1] = system: P. acnes NCTC 737; experiment: Disc diffusion assay (DDA), also supplemented;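 further: paper disc carrying compound placed on inoculated Wilkins-Chalgren Anaerobe agar pH 6.0, with lipid or NaCl supplement where listed, anaerobic 37 °C for 72 h, inhibition zone diameter read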
Experimental: (§6) The propionibacteria were cultured and maintained on Wilkins-Chalgren Anaerobe Medium (agar and broth) at pH 6.0; all cultures were incubated anaerobically at 37° C. for 72 hours.
(d) Disc Diffusion Assay (DDA)
(§7) A sterile paper disc was impregnated with a sample of the test compound in a suitable solvent and 30 minutes allowed for the solvents to evaporate (where possible). The disc was then placed on an agar plate onto which the test micro-organism had been inoculated. The plate was then incubated under the conditions described above, following which it was examined visually for signs of bacterial growth. […] The diameter of this zone of “inhibition” was measured using a ProtoCOL™ automated zone sizer (Synbiosis, Cambridge, UK).
(f) Supplemented Disc Diffusion Assays
(§8) For assays using Propionibacterium spp. strains the supplements used in the examples below were lipid (either Tween™ 80 or triolein, both at 1% v/v) and sodium chloride (100 mM).

[2] = system: P. acnes NCTC 737; experiment: Minimum inhibitory concentration (MIC) assay; type: cell-based, Propionibacterium acnes
From the text: (§1) (a) Minimum Inhibitory Concentration (MIC) Assay
(§2) The culture media were as described above.
(§3) The assays included both negative (culture medium with no micro-organisms) and positive (culture medium plus diluting solvent plus micro-organism) controls.

[3] = system: S. aureus ATCC 29213; experiment: Disc diffusion assay (DDA), also supplemented
Experimental: The staphylococci were cultured and maintained on Mueller-Hinton Medium (agar and broth) at pH 7.2; cultures were incubated aerobically at 37° C. for 19-20 hours.
(d) Disc Diffusion Assay (DDA)
as §7
(f) Supplemented Disc Diffusion Assays
(§9) For assays using S. aureus ATCC 29213 the supplements used were sodium chloride (100 mM), lipid (Tween™ 80 at 1% v/v) and horse serum (5% v/v).

[4] = system: S. aureus ATCC 29213; experiment: Minimum inhibitory concentration (MIC) assay; type: cell-based, Staphylococcus aureus
From the text: as §1, §2, §3

[5] = system: P. acnes NCTC 737; experiment: Minimum bactericidal concentration (MBC) assay; type: cell-based, Propionibacterium acnes
Experimental: (§4) (b) Minimum Bactericidal Concentration (MBC) Assay
(§5) Following incubation they were examined visually for bacterial growth.

[6] = system: S. aureus ATCC 29213; experiment: Minimum bactericidal concentration (MBC) assay; type: cell-based, Staphylococcus aureus
Experimental: as §4, §5

[7] = system: S. aureus ATCC 29213; experiment: Synergy disc diffusion assay (SDDA), also supplemented;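 further: disc diffusion on Mueller-Hinton agar at pH 7.2, aerobic incubation at 37 °C lasting 19-20 h, two compounds assessed jointly for combined antimicrobial effect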
Experimental: (e) Synergy Disc Diffusion Assay (SDDA)
(§10) This is a variation on the DDA method, in which two compounds are tested together for their combined antimicrobial activity.
(§11) Two test compounds A and B were placed on a single paper disc and the above described DDA procedure repeated.
(f) Supplemented Disc Diffusion Assays
as §9

[8] = system: P. acnes NCTC 737; experiment: as above
Experimental: as §6
(e) Synergy Disc Diffusion Assay (SDDA)
as §10, §11
(f) Supplemented Disc Diffusion Assays
as §8

[9] = copper salt alone, 200 μg per disc (silicate 62 μg), 1% (v/v) Tween 80
[10] = copper salt alone, 200 μg per disc (silicate 62 μg), salt and 1% (v/v) Tween 80
[11] = copper salt alone, 200 μg per disc (silicate 62 μg), sodium chloride (100 mM)
[12] = copper salt alone, P. acnes NCTC 737
[13] = copper salt alone, 200 μg per disc (silicate 62 μg), Tween 80 at 1% v/v
[14] = copper salt alone, 200 μg per disc (silicate 62 μg), salt and horse serum (5% v/v)
[15] = copper salt alone, S. aureus ATCC 29213
[16] = copper salt + TBHQ on one disc, 200 μg of each (silicate 62 μg), salt and serum supplements
[17] = copper salt + TBHQ on one disc, 200 μg of each (silicate 62 μg), unsupplemented
[18] = copper salt + TBHQ vs larger zone of either compound alone, unsupplemented
[19] = copper salt + TBHQ, salt and serum supplements
[20] = copper salt + TBHQ, unsupplemented
[21] = copper salt + TBHQ on one disc, 200 μg of each (silicate 62 μg), salt and lipid (1% (v/v) Tween 80)
[22] = copper salt + TBHQ, salt and lipid (1% (v/v) Tween 80)

For `[Cu+].[I-]` [Copper (I) iodide], the “DDA + lipid” value [1, 9] was 34.64 mm, the “DDA + salt & lipid” value [1, 10] was 46.20 mm and the “DDA + salt” value [1, 11] was 43.92 mm. For the same compound, the MIC [2, 12] was 7.8 µg/mL, the MIC/MBC ratio [2, 12] was 0.25 and the “DDA + lipid” value [3, 13] was 0 mm. For the same compound, the “DDA + salt & serum” value [3, 14] was 0 mm, the “DDA + salt” value [3, 11] was 0 mm and the MIC [4, 15] was greater than 250 µg/mL. The MBC [5, 12] was 31.25 µg/mL, the MBC [6, 15] was greater than 250 µg/mL and the “SS SDDA with TBHQ” value [7, 16] was 45.26 mm. The “SDDA with TBHQ” value [7, 17] was 52.74 mm, the SDDA increase [7, 18] was 12.32 mm and the “SS SDDA area increase” value [7, 19] was 7.37%. The “SS SDDA increase” value [7, 19] was 1.58 mm, the SDDA area increase [7, 20] was 70.25% and the “SL SDDA with TBHQ” value [8, 21] was 64.77 mm. The “SDDA with TBHQ” value [8, 17] was 70.08 mm, the SDDA increase [8, 18] was 21.48 mm and the “SL SDDA area increase” value [8, 22] was 96.51%. The “SL SDDA increase” value [8, 22] was 18.56 mm and the SDDA area increase [8, 20] was 107.92%.

With `CC(=O)[O-].CC(=O)[O-].[Cu+2]` [Copper (II) acetate] the DDA [1] was 53.61 mm, the “DDA + lipid” value [1] was 42.06 mm and the “DDA + salt” value [1] was 48.25 mm. For the same compound, the “DDA + salt & lipid” value [1] was 49.54 mm, the MIC [2] was 7.8 µg/mL and the MIC/MBC ratio [2] was 0.25. The DDA [3] was 0 mm, the “DDA + lipid” value [3] was 0 mm and the “DDA + salt” value [3] was 0 mm. For the same compound, the “DDA + salt & serum” value [3] was 0 mm, the MIC [4] was greater than 250 µg/mL and the MBC [5] was 31.25 µg/mL. It also gave an MBC [6] greater than 250 µg/mL, an SDDA area increase [7] of 1.59% and an SDDA increase [7] of 0.32 mm. The “SDDA with TBHQ” value [7] was 40.74 mm, the “SS SDDA area increase” value [7] was −57.34% and the “SS SDDA increase” value [7] was −15.15 mm. For the same compound, the “SS SDDA with TBHQ” value [7] was 28.53 mm, the SDDA area increase [8] was 56% and the SDDA increase [8] was 13.35 mm. The “SDDA with TBHQ” value [8] was 66.96 mm, the “SL SDDA area increase” value [8] was 64.92% and the “SL SDDA increase” value [8] was 14.08 mm. The “SL SDDA with TBHQ” value [8] was 63.62 mm.

For `CC(=O)Oc1ccccc1C(=O)[O-].CC(=O)Oc1ccccc1C(=O)[O-].CC(=O)Oc1ccccc1C(=O)[O-].CC(=O)Oc1ccccc1C(=O)[O-].[Cu+2].[Cu+2]` [Copper (II) aspirinate], the DDA [1] was 44.32 mm, the “DDA + lipid” value [1, 9] was 36.19 mm and the “DDA + salt & lipid” value [1, 10] was 47.45 mm. For the same compound, the “DDA + salt” value [1, 11] was 40.21 mm, the MIC [2, 12] was 15.6 µg/mL and the DDA [3] was 0 mm. For the same compound, the “DDA + lipid” value [3, 13] was 0 mm, the “DDA + salt & serum” value [3, 14] was 0 mm and the “DDA + salt” value [3, 11] was 0 mm. It also gave an MIC [4, 15] of 125 µg/mL, an MIC/MBC ratio [4, 15] of less than 0.5 and an MBC [5, 12] of 62.5 µg/mL. The MBC [6, 15] was greater than 250 µg/mL, the “SS SDDA with TBHQ” value [7, 16] was 56.95 mm and the “SDDA with TBHQ” value [7, 17] was 69.05 mm. The SDDA increase [7, 18] was 28.63 mm, the “SS SDDA area increase” value [7, 19] was 69.99% and the “SS SDDA increase” value [7, 19] was 13.27 mm. For the same compound, the SDDA area increase [7, 20] was 191.83%, the “SL SDDA with TBHQ” value [8, 21] was 58.93 mm and the “SDDA with TBHQ” value [8, 17] was 60.80 mm. For the same compound, the SDDA increase [8, 18] was 16.48 mm, the “SL SDDA area increase” value [8, 22] was 54.20% and the “SL SDDA increase” value [8, 22] was 11.47 mm. The SDDA area increase [8, 20] was 88.19%.

For `[Br][Cu][Br]` [Copper (II) bromide], the “DDA + lipid” value [1, 9] was 42.37 mm, the “DDA + salt & lipid” value [1, 10] was 49.23 mm and the “DDA + salt” value [1, 11] was 47.94 mm. For the same compound, the MIC [2, 12] was 7.8 µg/mL, the MIC/MBC ratio [2, 12] was 0.125 and the “DDA + lipid” value [3, 13] was 0 mm. The “DDA + salt & serum” value [3, 14] was 0 mm, the “DDA + salt” value [3, 11] was 0 mm and the MIC [4, 15] was greater than 250 µg/mL. The MBC [5, 12] was 62.5 µg/mL, the MBC [6, 15] was greater than 250 µg/mL and the “SS SDDA with TBHQ” value [7, 16] was 44.42 mm. The “SDDA with TBHQ” value [7, 17] was 59.26 mm, the SDDA increase [7, 18] was 18.84 mm and the “SS SDDA area increase” value [7, 19] was 3.42%. The “SS SDDA increase” value [7, 19] was 0.74 mm, the SDDA area increase [7, 20] was 114.95% and the “SL SDDA with TBHQ” value [8, 21] was 65.39 mm. For the same compound, the “SDDA with TBHQ” value [8, 17] was 66.3 mm, the SDDA increase [8, 18] was 11.47 mm and the “SL SDDA area increase” value [8, 22] was 76.46%. For the same compound, the “SL SDDA increase” value [8, 22] was 16.17 mm and the SDDA area increase [8, 20] was 46.18%.

In the case of `[Cl-].[Cu+2].[Cu+2].[OH-].[OH-].[OH-]` [Copper (II) oxychloride], the DDA [1] was 51.21 mm, the “DDA + lipid” value [1, 9] was 51.65 mm and the “DDA + salt & lipid” value [1, 10] was 52.04 mm. For the same compound, the “DDA + salt” value [1, 11] was 54.47 mm, the MIC [2, 12] was 0.98 µg/mL and the MIC/MBC ratio [2, 12] was 0.06. For the same compound, the DDA [3] was 0 mm, the “DDA + lipid” value [3, 13] was 0 mm and the “DDA + salt & serum” value [3, 14] was 0 mm. For the same compound, the “DDA + salt” value [3, 11] was 0 mm, the MIC [4, 15] was greater than 250 µg/mL and the MBC [5, 12] was 15.6 µg/mL. For the same compound, the MBC [6, 15] was greater than 250 µg/mL, the “SS SDDA with TBHQ” value [7, 16] was 43.89 mm and the “SDDA with TBHQ” value [7, 17] was 52.63 mm. For the same compound, the SDDA increase [7, 18] was 12.21 mm, the “SS SDDA area increase” value [7, 19] was 0.96% and the “SS SDDA increase” value [7, 19] was 0.21 mm. For the same compound, the SDDA area increase [7, 20] was 69.54%, the “SL SDDA with TBHQ” value [8, 21] was 54.02 mm and the “SDDA with TBHQ” value [8, 17] was 59.45 mm. The SDDA increase [8, 18] was 8.24 mm, the “SL SDDA area increase” value [8, 22] was 7.76% and the “SL SDDA increase” value [8, 22] was 1.98 mm. It also gave an SDDA area increase [8, 20] of 34.77%.
